Earlier results in article PMC8637765 (RSC Chemical Biology, 2021).

System: cancer cells

Row | Structure (SMILES) | Growth inhibition at the cellular level
1 | O=C(Cc1ccccc1)Nc1nnc(CCSCCc2nnc(NC(=O)Cc3ccccc3)s2)s1 [BPTES, bis-2-(5-phenylacetamido-1,3,4-thiadiazol-2-yl)ethyl sulfide] | partial growth inhibition
2 | O=C(Cc1cccc(OC(F)(F)F)c1)Nc1ccc(CCCCc2nnc(NC(=O)Cc3ccccn3)s2)nn1 [CB-839] | partial growth inhibition
